Experimental data published in the supplement of paper PMC11061612.

Key:
EW-22 (Ewing's Sarcoma) = assay: Bliss excess, mean over the matrix (fraction); higher = more synergy
In short: (§1)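 Cell lines in DMEM/F12 or RPMI with 10% FBS were plated in 1536-well plates, held 24 hours at 37°C, 5% CO2, then given two-drug dose matrices for 72 hours (DMSO typically 0.2%). Viability was read by CellTiter-Glo 2.0 luminescence and scaled as inhibition from 0 (vehicle wells) to 1 (blank wells). Combination Emax is the second-highest inhibition in the matrix; Bliss excess is observed combination effect minus expected EA + EB − EA·EB, EA and EB being single-agent effects.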

[1] = test system: SK-LMS-1 (Other Solid Carcinomas); assay: as above
In short: as §1

[2] = test system: SLVL (B-Cell Non-Hodgkin's Lymphoma); assay: as above
In short: as §1

[3] = test system: P31-FUJ (Acute Myeloid Leukemia); assay: as above
In short: as §1

[4] = test system: HLE (Hepatocellular Carcinoma); assay: as above
In short: as §1

[5] = test system: SW48 (Colorectal Carcinoma); assay: as above
In short: as §1

[6] = test system: MEG-01 (Chronic Myelogenous Leukemia); assay: as above
In short: as §1

[7] = test system: CAL-39 (Other Solid Carcinomas); assay: as above
In short: as §1

[8] = test system: BICR78 (Oral Cavity Carcinoma); assay: as above
In short: as §1

[9] = test system: SW948 (Colorectal Carcinoma); assay: as above
In short: as §1

SK-MEL-1 (Melanoma) = assay: as above
In short: as §1

[10] = test system: FU-OV-1 (Ovarian Carcinoma); assay: as above
In short: as §1

MSTO-211H (Mesothelioma) = assay: as above
In short: as §1

[11] = test system: YT (Other Blood Carcinomas); assay: combination Emax (second highest fraction inhibited in the dose matrix, 72 h); higher = more inhibition; extreme values may be limits of the assay
In short: as §1

[12] = test system: P31-FUJ (Acute Myeloid Leukemia); assay: as above
In short: as §1

[13] = test system: SW48 (Colorectal Carcinoma); assay: as above
In short: as §1

[14] = test system: CAL-39 (Other Solid Carcinomas); assay: as above
In short: as §1

[15] = test system: FU-OV-1 (Ovarian Carcinoma); assay: as above
In short: as §1

[16] = test system: DOK (Oral Cavity Carcinoma); assay: as above
In short: as §1

[17] = test system: NOMO-1 (Acute Myeloid Leukemia); assay: as above
In short: as §1
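For Bliss excess, mean over the matrix in this document: after 72 h of two-drug dosing.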

Structure (SMILES)	Bliss excess (EW-22 (Ewing's Sarcoma))	Bliss excess [1]	Bliss excess [2]	Bliss excess [3]	Bliss excess [4]	Bliss excess [5]	Bliss excess [6]	Bliss excess [7]	Bliss excess [8]	Bliss excess [9]	Bliss excess (SK-MEL-1 (Melanoma))	Bliss excess [10]	Bliss excess (MSTO-211H (Mesothelioma))	combination Emax [11]	combination Emax [12]	combination Emax [13]	combination Emax [14]	combination Emax [15]	combination Emax [16]	combination Emax [17]
C[C@@H]1COCCN1c1cc(C2([S@](C)(=N)=O)CC2)nc(-c2ccnc3[nH]ccc23)n1 [AZD6738] + Nc1ccn([C@@H]2O[C@H](CO)[C@@H](O)C2(F)F)c(=O)n1 [Gemcitabine] (first compound max 10 µM, 7x7, partner max 0.3 µM)	0.0068	0.0139	-0.0284	0.0545	0.105	-0.0329	-0.0258	0.0523	0.0298	0.0448	0.0174	-0.0143	0.0098	1	1	0.818	0.961	0.67	0.782	1
N#Cc1cnc(Nc2cc(NC[C@H]3CNCCO3)c(C(F)(F)F)cn2)cn1 [SRA737] + C=CCn1c(=O)c2cnc(Nc3ccc(N4CCN(C)CC4)cc3)nc2n1-c1cccc(C(C)(C)O)n1 [AZD1775] (first compound max 10 µM, partner max 1 µM)	0.0315	0.112	0.0581	0.0411	0.013	0.0468	-0.0314	-0.0255	-0.0326	0.0054	-0.0195	0.0719	0.131	1	0.973	0.764	0.454	0.632	0.481	0.988
C=CCn1c(=O)c2cnc(Nc3ccc(N4CCN(C)CC4)cc3)nc2n1-c1cccc(C(C)(C)O)n1 [AZD1775] + CCc1c2c(nc3ccc(O)cc13)-c1cc3c(c(=O)n1C2)COC(=O)[C@]3(O)CC [SN-38] (first compound max 1 µM, partner max 0.3 µM)	-0.0286	-0.0441	-0.0701	0.0049	-0.0436	-0.0052	-0.0251	-0.0225	-0.0403	0.141	0.0154	-0.102	-0.0619	0.977	0.985	0.857	0.947	0.711	0.745	0.992
C[C@@H](Oc1cc(-c2cnn(C3CCNCC3)c2)cnc1N)c1c(Cl)ccc(F)c1Cl [Crizotinib] + CC1=C(C(=CC=C1)Cl)NC(=O)C2=CN=C(S2)NC3=CC(=NC(=N3)C)N4CCN(CC4)CCO [Dasatinib] (first compound max 10 µM, 7x7, partner max 2 µM)	-0.0466	0.153	0.0167	-0.0311	0.0195	-0.0118	0.0253	0.027	0.0142	-0.0118	-0.0554	0.0761	0.0718	0.885	0.792	0.892	0.987	0.682	1	0.528
O=C(c1cc(Cc2n[nH]c(=O)c3ccccc23)ccc1F)N1CCN(C(=O)C2CC2)CC1 [Olaparib] + CN(CC[C@H](CSC1=CC=CC=C1)NC2=C(C=C(C=C2)S(=O)(=O)NC(=O)C3=CC=C(C=C3)N4CCC(CC4)[C@H](C5=CC=CC=C5C6=CC=C(C=C6)Cl)O)S(=O)(=O)C(F)(F)F)CCO [AZD4320] (first compound max 10 µM, 7x7, partner max 1 µM)	0.0385	-0.0169	0.0356	-0.131	-0.0213	-0.0239	-0.009	-0.0242	-0.0656	-0.0165	-0.0299	-0.0355	-0.0173	0.343	0.568	0.687	0.116	0.226	0.191	0.348
O=C(c1cc(Cc2n[nH]c(=O)c3ccccc23)ccc1F)N1CCN(C(=O)C2CC2)CC1 [Olaparib] + Cc1c2c(nn1C)CSCc1cc(n(C)n1)CSc1cc(c3ccccc3c1)OCCCc1c(C(=O)O)n(C)c3c-2c(Cl)ccc13 [AZD5991] (first compound max 10 µM, 7x7, partner max 1 µM)	-0.016	-0.0076	-0.0034	-0.0125	-0.0144	-0.0253	-0.0416	-0.0409	-0.0643	-0.0449	-0.0301	-0.071	-0.029	1	0.964	0.178	0.21	0.199	0.381	0.771
CN(CCO)CC[C@H](CSc1ccccc1)Nc1ccc(S(=O)(=O)NC(=O)c2ccc(N3CCC([C@@H](O)c4ccccc4-c4ccc(Cl)cc4)CC3)cc2)cc1S(=O)(=O)C(F)(F)F [AZD4320] + Nc1ccn([C@@H]2O[C@H](CO)[C@@H](O)C2(F)F)c(=O)n1 [Gemcitabine] (first compound max 1 µM, 7x7, partner max 0.3 µM)	0.0287	0.0273	-0.0135	-0.0492	0.0579	0.0089	0.0059	0.0174	-0.0581	0.0114	-0.0689	-0.0498	0.0099	0.862	0.959	0.972	0.97	0.245	0.859	0.987
